Measured values reported in ChEMBL document CHEMBL5244262, “Discovery and optimization of benzenesulfonamides-based hepatitis B virus capsid modulators via contemporary medicinal chemistry strategies” (Eur J Med Chem, 2020).
pEC50, pIC50: −log10 of the molar value.

Legend:
Hepatitis B virus [1] = test: Antiviral activity against Hepatitis B virus infected in HePAD38 cells; format: functional, organism-based
[2] = Selectivity index, ratio of CC50 for human HePAD38 cells to EC50 for antiviral activity against Hepatitis B virus infected in HePAD38 cells; format: toxicity, cell-based; details: read-out: Ratio CC50/EC50
[3] = Cytotoxicity against human HePAD38 cells; format: toxicity, cell-based
Hepatitis B virus [4] = test: Ratio of EC50 for antiviral activity against HBV harboring core protein T33N mutant to EC50 for antiviral activity against HBV harboring wild type core protein; format: functional
Hepatitis B virus [5] = test: Ratio of EC50 for antiviral activity against HBV harboring core protein T33Q mutant to EC50 for antiviral activity against HBV harboring wild type core protein; format: functional
Hepatitis B virus [6] = test: Ratio of EC50 for antiviral activity against HBV harboring core protein P25G mutant to EC50 for antiviral activity against HBV harboring wild type core protein; format: functional
Hepatitis B virus [7] = test: Antiviral activity against HBV harboring core protein T33N mutant; format: functional, organism-based
Hepatitis B virus [8] = test: Antiviral activity against HBV harboring core protein V124F mutant; format: functional, organism-based
Hepatitis B virus [9] = test: Ratio of EC50 for antiviral activity against HBV harboring core protein V124F mutant to EC50 for antiviral activity against HBV harboring wild type core protein; format: functional
Hepatitis B virus [10] = test: Antiviral activity against HBV harboring core protein P25A mutant; format: functional, organism-based
Hepatitis B virus [11] = test: Antiviral activity against HBV harboring core protein V124I mutant; format: functional, organism-based
Hepatitis B virus [12] = test: Antiviral activity against HBV harboring core protein P25S mutant; format: functional, organism-based
Hepatitis B virus [13] = test: Ratio of EC50 for antiviral activity against HBV harboring core protein T33S mutant to EC50 for antiviral activity against HBV harboring wild type core protein; format: functional
Hepatitis B virus [14] = test: Ratio of EC50 for antiviral activity against HBV harboring core protein P25S mutant to EC50 for antiviral activity against HBV harboring wild type core protein; format: functional
Hepatitis B virus [15] = test: Antiviral activity against HBV harboring core protein T33Q mutant; format: functional, organism-based
Hepatitis B virus [16] = test: Antiviral activity against HBV harboring core protein P25G mutant; format: functional, organism-based
Hepatitis B virus [17] = test: Antiviral activity against HBV harboring wild type core protein; format: functional, organism-based
Hepatitis B virus [18] = test: Ratio of EC50 for antiviral activity against HBV harboring core protein P25A mutant to EC50 for antiviral activity against HBV harboring wild type core protein; format: functional
Hepatitis B virus [19] = test: Antiviral activity against HBV harboring core protein T33S mutant; format: functional, organism-based
Hepatitis B virus [20] = test: Ratio of EC50 for antiviral activity against HBV harboring core protein V124I mutant to EC50 for antiviral activity against HBV harboring wild type core protein; format: functional
Hepatitis B virus [21] = test: Antiviral activity against Hepatitis B virus infected in AML12HBV10 cells; format: functional, organism-based
Hepatitis B virus [22] = test: Antiviral activity against Hepatitis B virus infected in HepDES19 cells; format: functional, organism-based
[23] = Cytotoxicity against mouse AML12HBV10; format: toxicity, cell-based; details: AML12HBV10 cells
[24] = Cytotoxicity against human HepDES19 cells; format: toxicity, cell-based
[25] = Half life in dog plasma; format: ADME, cell-free, Canis lupus familiaris
[26] = Half life in human plasma; format: ADME, cell-free
[27] = Cytotoxicity in human primary hepatocytes; format: toxicity, cell-based, Hepatocyte
[28] = Half life in mouse plasma; format: ADME, cell-free
[29] = Oral bioavailability in CD1 mouse; format: ADME, organism-based; details: in vivo
Hepatitis B virus [30] = test: Antiviral activity against Hepatitis B virus infected in HePAD38 cells assessed as reduction in HBeAg production; format: functional, organism-based
Hepatitis B virus [31] = test: Antiviral activity against Hepatitis B virus harboring rtL180M/M204V/N236T transfected in HepG2 cells; format: functional, organism-based
Hepatitis B virus [32] = test: Antiviral activity against Hepatitis B virus infected in HepG2.2.15 cells; format: functional, organism-based
Hepatitis B virus [33] = test: Antiviral activity against Hepatitis B virus harboring rtA181V/N236T transfected in HepG2 cells; format: functional, organism-based
[34] = Oral bioavailability in mouse; format: ADME, organism-based; details: in vivo
Hepatitis B virus [35] = test: Antiviral activity against Hepatitis B virus harboring rtA181V transfected in HepG2 cells; format: functional, organism-based
Hepatitis B virus [36] = test: Antiviral activity against Hepatitis B virus harboring rtN236T transfected in HepG2 cells; format: functional, organism-based
Hepatitis B virus [37] = test: Antiviral activity against Hepatitis B virus harboring rtL180M/M204V transfected in HepG2 cells; format: functional, organism-based
[38] = Cytotoxicity against human HepBHAe82 cells; format: toxicity, cell-based
[39] = Cytotoxicity against human HepG2.2.15 cells; format: toxicity, cell-based, HepG2 2.2.15
Hepatitis B virus [40] = test: Antiviral activity against Hepatitis B virus infected in HepDE19 cells; format: functional, organism-based
[41] = Cytotoxicity against human HepDE19 cells; format: functional
Hepatitis B virus [42] = test: Antiviral activity against Hepatitis B virus infected in HepBHAe82 cells; format: functional, organism-based
Hepatitis B virus [43] = test: Antiviral activity against Hepatitis B virus infected in primary hepatocytes; format: functional, organism-based; details: Hepatocyte
Hepatitis B virus [44] = test: Antiviral activity against Hepatitis B virus assessed as inhibition of nucleocapsid assembly; format: functional, organism-based

O=C1CCN(S(=O)(=O)c2cc(C(=O)Nc3cc(F)c(F)c(F)c3)ccc2F)CC1
pEC50 (Hepatitis B virus [1]): 6.52 | selectivity ratio [2]: 24.7 | CC50 [3]: 7410 nM

COC(=O)C1=C(C)NC(c2ncc(F)cc2F)=N[C@H]1c1ccc(F)cc1Cl
Ratio (Hepatitis B virus [4]): >67 | Ratio (Hepatitis B virus [5]): 25 | Ratio (Hepatitis B virus [6]): >67 | pEC50 (Hepatitis B virus [7]): < 5.00 | pEC50 (Hepatitis B virus [8]): 5.63 | Ratio (Hepatitis B virus [9]): 15.7 | pEC50 (Hepatitis B virus [10]): 5.46 | pEC50 (Hepatitis B virus [11]): 7.89 | pEC50 (Hepatitis B virus [12]): 5.37 | Ratio (Hepatitis B virus [13]): 3 | Ratio (Hepatitis B virus [14]): 28.7 | pEC50 (Hepatitis B virus [15]): 5.43 | pEC50 (Hepatitis B virus [16]): < 5.00 | pEC50 (Hepatitis B virus [17]): 6.83 | Ratio (Hepatitis B virus [18]): 23.2 | pEC50 (Hepatitis B virus [19]): 6.35 | Ratio (Hepatitis B virus [20]): 0.09

O=C(Nc1cc(F)c(F)c(F)c1)c1ccc(F)c(S(=O)(=O)N2C[C@H]3CC[C@@H]2CC3=O)c1
pEC50 (Hepatitis B virus [1]): 6.66 | selectivity ratio [2]: 33.7 | CC50 [3]: 7410 nM

Cn1cc2c(c1C(=O)Nc1cc(F)c(F)c(F)c1)OCC1CN(C(=O)c3ncco3)CC1NS2(=O)=O (stereo unspecified)
pEC50 (Hepatitis B virus [1]): > 6.00

O=C(Nc1cc(F)c(F)c(F)c1)c1ccc(F)c(S(=O)(=O)NC2CCC(O)CC2)c1 (stereo unspecified)
pEC50 (Hepatitis B virus [1]): 6.60 | selectivity ratio [2]: 42.7 | CC50 [3]: 10700 nM

O=C(Nc1cc(F)c(F)c(F)c1)c1ccc(F)c(S(=O)(=O)N2CCC(=NO)CC2)c1
pEC50 (Hepatitis B virus [1]): 6.68 | selectivity ratio [2]: 35.3 | CC50 [3]: 7410 nM

O=C(Nc1cc(F)c(F)c(F)c1)c1ccc(F)c(S(=O)(=O)N2CC3CC(O)CC3C2)c1 (stereo unspecified)
pEC50 (Hepatitis B virus [1]): 6.48 | selectivity ratio [2]: 74.1 | CC50 [3]: 22200 nM

CCC(C)NS(=O)(=O)c1ccc(F)c(C(=O)Nc2ccc(F)c(F)c2)c1 (stereo unspecified)
pIC50 (Hepatitis B virus [21]): 6.52 | pIC50 (Hepatitis B virus [22]): 7.00 | CC50 [23]: > 50000 nM | CC50 [24]: > 50000 nM

C#CCNC(=O)C(=O)c1c(C)c(C(=O)Nc2ccc(F)c(F)c2)n(C)c1C
half-life [25]: > 24 h | half-life [26]: > 24 h | CC50 [27]: > 10000 nM | half-life [28]: > 24 h | bioavailability [29]: > 100% | pIC50 (Hepatitis B virus [30]): 8.52

O=C(Nc1cc(F)c(F)c(F)c1)c1ccc(F)c(S(=O)(=O)N2CCC(O)CC2)c1
Ratio (Hepatitis B virus [4]): >13 | Ratio (Hepatitis B virus [5]): >13 | pEC50 (Hepatitis B virus [31]): 6.09 | Ratio (Hepatitis B virus [6]): 12.2 | pEC50 (Hepatitis B virus [7]): < 5.30 | pEC50 (Hepatitis B virus [32]): 6.40 | pEC50 (Hepatitis B virus [8]): 6.54 | Ratio (Hepatitis B virus [9]): 0.7 | pEC50 (Hepatitis B virus [1]): 6.48 | pEC50 (Hepatitis B virus [33]): 6.09 | bioavailability [34]: ≥ 84.6% | pEC50 (Hepatitis B virus [10]): 6.05 | pEC50 (Hepatitis B virus [11]): 7.38 | pEC50 (Hepatitis B virus [35]): 6.09 | pEC50 (Hepatitis B virus [12]): 6.03 | pEC50 (Hepatitis B virus [36]): 6.09 | Ratio (Hepatitis B virus [13]): 2.3 | selectivity ratio [2]: 15.6 | Ratio (Hepatitis B virus [14]): 2.4 | CC50 [3]: 5140 nM | pEC50 (Hepatitis B virus [15]): < 5.30 | pEC50 (Hepatitis B virus [16]): 5.32 | pEC50 (Hepatitis B virus [17]): 6.41 | Ratio (Hepatitis B virus [18]): 2.3 | pEC50 (Hepatitis B virus [37]): 6.09 | pEC50 (Hepatitis B virus [19]): 6.06 | Ratio (Hepatitis B virus [20]): 0.1

CC[C@@H](C)NS(=O)(=O)c1ccc(F)c(C(=O)Nc2ccc(F)c(F)c2)c1
pEC50 (Hepatitis B virus [21]): 7.10 | EC90 (Hepatitis B virus [21]): 330 nM | CC50 [38]: > 10000 nM | pEC50 (Hepatitis B virus [32]): 7.10 | EC90 (Hepatitis B virus [32]): 330 nM | CC50 [27]: > 10000 nM | CC50 [39]: > 10000 nM | pEC50 (Hepatitis B virus [40]): 7.10 | EC90 (Hepatitis B virus [40]): 330 nM | CC50 [41]: > 10000 nM | CC50 [23]: > 10000 nM | pEC50 (Hepatitis B virus [42]): 7.10 | EC90 (Hepatitis B virus [42]): 330 nM | pEC50 (Hepatitis B virus [43]): 7.10 | EC90 (Hepatitis B virus [43]): 330 nM

CC(NS(=O)(=O)c1c2ncccc2c(C(=O)Nc2ccc(F)c(F)c2)n1C)C(F)(F)F (stereo unspecified)
pEC50 (Hepatitis B virus [32]): 10.00 | CC50 [39]: > 30000 nM | pIC50 (Hepatitis B virus [44]): > 6.00

COC(=O)C1=C(CN2CC(F)(F)C[C@H]2C(=O)O)NC(c2nccs2)=N[C@H]1c1ccc(F)cc1Cl
Ratio (Hepatitis B virus [4]): 38.1 | Ratio (Hepatitis B virus [5]): 21.7 | Ratio (Hepatitis B virus [6]): 15.2 | pEC50 (Hepatitis B virus [7]): 5.46 | pEC50 (Hepatitis B virus [8]): 5.96 | Ratio (Hepatitis B virus [9]): 11.9 | pEC50 (Hepatitis B virus [10]): 6.13 | pEC50 (Hepatitis B virus [11]): 8.05 | pEC50 (Hepatitis B virus [12]): 6.04 | Ratio (Hepatitis B virus [13]): 1.8 | Ratio (Hepatitis B virus [14]): 9.9 | pEC50 (Hepatitis B virus [15]): 5.71 | pEC50 (Hepatitis B virus [16]): 5.86 | pEC50 (Hepatitis B virus [17]): 7.04 | Ratio (Hepatitis B virus [18]): 8.1 | pEC50 (Hepatitis B virus [19]): 6.79 | Ratio (Hepatitis B virus [20]): 0.1

O=C1CC2CN(S(=O)(=O)c3cc(C(=O)Nc4cc(F)c(F)c(F)c4)ccc3F)CC2C1 (stereo unspecified)
pEC50 (Hepatitis B virus [1]): 6.41 | selectivity ratio [2]: 48 | CC50 [3]: 18700 nM

O=C(Nc1cc(F)c(F)c(F)c1)c1ccc(F)c(S(=O)(=O)N2C[C@H]3CC[C@@H]2CC3O)c1 (stereo partly specified)
pEC50 (Hepatitis B virus [1]): 6.46 | selectivity ratio [2]: 30.5 | CC50 [3]: 10700 nM
